Data: patent publication US7335645B2, “Effectors of dipeptidyl peptidase IV for topical use” (Probiodrug AG, priority 1999, dated 2008)
Structures can show the parent of a compound that is named as a salt.

How the values were obtained:
PepT1 [1] = molecular target: T1, PepT1 (Oryctolagus cuniculus, UniProt P36836); test: Inhibition of 3H-D-Phe-Ala binding to PepT1-expressing P. pastoris cells; settings: read-out: EC50: effective concentration inhibiting the binding of 3H-D-Phe-Ala to PepT1-expressing P. pastoris cells by 50%
T1 construct: expressed in transfected cells
T1 sequence (P36836 1-707): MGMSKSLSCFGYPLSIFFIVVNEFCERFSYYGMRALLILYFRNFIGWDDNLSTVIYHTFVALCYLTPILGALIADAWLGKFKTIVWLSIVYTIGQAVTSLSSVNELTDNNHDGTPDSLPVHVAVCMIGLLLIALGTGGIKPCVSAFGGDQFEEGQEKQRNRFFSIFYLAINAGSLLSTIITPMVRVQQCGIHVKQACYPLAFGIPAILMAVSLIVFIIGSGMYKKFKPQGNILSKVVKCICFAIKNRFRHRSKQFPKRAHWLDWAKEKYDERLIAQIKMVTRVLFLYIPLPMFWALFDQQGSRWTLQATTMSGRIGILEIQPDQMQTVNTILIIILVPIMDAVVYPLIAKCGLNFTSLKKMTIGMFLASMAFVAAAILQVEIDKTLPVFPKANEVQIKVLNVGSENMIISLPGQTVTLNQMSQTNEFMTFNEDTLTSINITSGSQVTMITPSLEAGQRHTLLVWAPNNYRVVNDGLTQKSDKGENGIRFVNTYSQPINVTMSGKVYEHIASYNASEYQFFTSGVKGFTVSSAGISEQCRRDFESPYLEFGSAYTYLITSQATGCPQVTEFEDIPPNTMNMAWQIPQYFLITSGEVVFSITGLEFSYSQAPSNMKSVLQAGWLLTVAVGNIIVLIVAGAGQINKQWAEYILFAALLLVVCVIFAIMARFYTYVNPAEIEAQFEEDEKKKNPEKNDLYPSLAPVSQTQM
Description: (§1) Side chain-modified glutamylthiazolidines having a structure H-Glu(X)-Thia were synthesized, with polyethylene glycol or glycine oligomers of various chain lengths being used as X (see Method A for description of synthesis). The binding characteristics of those derivatives and their transportability by the peptide transporter PepT1 were investigated and the Ki values with respect to DP IV were determined (Table 1).

PepT1 [2] = test: Transport at PepT1-expressing X. leavis oocytes, two-electrode voltage clamp method; type: cell-based; set-up: unit not given here; settings: PepT1-expressing oocytes of X. leavis, n.d. = not detectable
Description: as §1

[3] = literature statement (Reinhold et al., 1998); cited from earlier work
plasma-DP IV = molecular target: T2, plasma-DP IV (Rattus norvegicus, UniProt P14740); test: Inhibition of plasma-DP IV after oral administration in healthy Wistar rats; type: in vivo; settings: 5 μmol/300 g rat
T2 construct: from tissue; host or cells: plasma of Wistar rats after oral dosing
T2 sequence (P14740 38-767 limits assumed): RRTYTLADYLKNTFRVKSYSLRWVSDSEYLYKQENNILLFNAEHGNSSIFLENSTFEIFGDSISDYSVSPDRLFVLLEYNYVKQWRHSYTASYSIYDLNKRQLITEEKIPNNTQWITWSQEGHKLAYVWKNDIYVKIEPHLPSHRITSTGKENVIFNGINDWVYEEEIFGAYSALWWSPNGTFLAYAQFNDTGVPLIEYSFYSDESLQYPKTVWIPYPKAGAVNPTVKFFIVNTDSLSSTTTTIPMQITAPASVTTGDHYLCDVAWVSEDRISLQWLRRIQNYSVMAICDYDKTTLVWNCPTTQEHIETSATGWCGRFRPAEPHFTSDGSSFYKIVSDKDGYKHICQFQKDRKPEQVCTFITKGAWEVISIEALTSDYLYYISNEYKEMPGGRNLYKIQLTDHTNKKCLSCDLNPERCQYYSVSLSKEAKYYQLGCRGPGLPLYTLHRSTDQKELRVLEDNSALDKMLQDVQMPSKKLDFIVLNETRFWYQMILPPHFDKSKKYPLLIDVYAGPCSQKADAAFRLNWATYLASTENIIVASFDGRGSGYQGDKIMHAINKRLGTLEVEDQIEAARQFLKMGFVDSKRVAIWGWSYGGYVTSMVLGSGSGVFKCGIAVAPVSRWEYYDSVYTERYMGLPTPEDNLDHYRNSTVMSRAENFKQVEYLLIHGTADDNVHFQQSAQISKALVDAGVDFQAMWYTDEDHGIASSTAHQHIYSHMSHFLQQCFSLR
Description: FIG. 1: Systemic action of orally administered DP IV-inhibitors in healthy Wistar rats.
The course, over time, of the percentage inhibition of plasma-DP IV activity following oral administration of 5 μmol of inhibitor per 300 g of rat (n=2) is shown.
The inhibition of plasma-DP IV (systemic action) was investigated following oral administration of side chain-modified DP IV-inhibitors ([…]) compared with unmodified inhibitors in healthy Wistar rats.

## NC(CCC(=O)O)C(=O)N1CCSC1 (stereo not drawn) [H-Glu-Thia]
PepT1 [1]
  EC50: 1.1 mM
PepT1 [2]
  Imax: inward currents generated by the transport: 35 ± 13

## N[C@@H](CCCCNC(=O)OCc1ccc([N+](=O)[O-])cc1)C(=O)N1CCSC1 [Lys(Z-NO2)-Thia]
[3]
  Transport of the inhibitor: transported completely

## N[C@@H](CCC(=O)NCC(=O)NCC(=O)NCC(=O)NCC(=O)NCC(=O)O)C(=O)N1CCSC1 [H-Glu(Gly5)-Thia]
plasma-DP IV
  Systemic action (inhibition of plasma-DP IV) after oral administration: no systemic action of the orally administered active ingredient is detectable

## N[C@@H](CCC(=O)NCC(=O)O)C(=O)N1CCSC1 [Glu(Gly)-Thia]
[3]
  Transport of the inhibitor: transported completely

## H-Glu(PEG)-Thia
PepT1 [1]
  EC50: > 10 mM

## N[C@@H](CCC(=O)NCC(=O)NCC(=O)NCC(=O)O)C(=O)N1CCSC1 (as salt: trifluoroacetate) [H-Glu(Gly3)-Thia]
other
  melting point: 91 to 94 °C

## H-Gly(NHOH)-Thia
PepT1 [1]
  EC50: 3.18 mM
PepT1 [2]
  Imax: inward currents generated by the transport: 42 ± 11
